In brackets after ≈: the same amount, converted by molar mass. *1 amine or outer side, *2 acyl side, *3 side chain or, on linkers, in order; H or OH if unused. Where a SMILES comes first, the peptide text is derived from it. [ ]: non-standard residue; d: D form. The star is where a group is joined. X1 = CCCC(N[*:1])C(=O)C(=O)[*:2]; Chg = N[C@H](C(=O)O)C1CCCCC1; Phg = N[C@H](C(=O)O)c1ccccc1; Boc = CC(C)(C)OC(=O)*

The target of data set [1] is Vascular endothelial growth factor receptor 1 (Homo sapiens, UniProt P17948). Put plainly: Inhibition of VEGFR1 (unknown origin).
Vascular endothelial growth factor receptor 1, sequence (P17948 whole entry): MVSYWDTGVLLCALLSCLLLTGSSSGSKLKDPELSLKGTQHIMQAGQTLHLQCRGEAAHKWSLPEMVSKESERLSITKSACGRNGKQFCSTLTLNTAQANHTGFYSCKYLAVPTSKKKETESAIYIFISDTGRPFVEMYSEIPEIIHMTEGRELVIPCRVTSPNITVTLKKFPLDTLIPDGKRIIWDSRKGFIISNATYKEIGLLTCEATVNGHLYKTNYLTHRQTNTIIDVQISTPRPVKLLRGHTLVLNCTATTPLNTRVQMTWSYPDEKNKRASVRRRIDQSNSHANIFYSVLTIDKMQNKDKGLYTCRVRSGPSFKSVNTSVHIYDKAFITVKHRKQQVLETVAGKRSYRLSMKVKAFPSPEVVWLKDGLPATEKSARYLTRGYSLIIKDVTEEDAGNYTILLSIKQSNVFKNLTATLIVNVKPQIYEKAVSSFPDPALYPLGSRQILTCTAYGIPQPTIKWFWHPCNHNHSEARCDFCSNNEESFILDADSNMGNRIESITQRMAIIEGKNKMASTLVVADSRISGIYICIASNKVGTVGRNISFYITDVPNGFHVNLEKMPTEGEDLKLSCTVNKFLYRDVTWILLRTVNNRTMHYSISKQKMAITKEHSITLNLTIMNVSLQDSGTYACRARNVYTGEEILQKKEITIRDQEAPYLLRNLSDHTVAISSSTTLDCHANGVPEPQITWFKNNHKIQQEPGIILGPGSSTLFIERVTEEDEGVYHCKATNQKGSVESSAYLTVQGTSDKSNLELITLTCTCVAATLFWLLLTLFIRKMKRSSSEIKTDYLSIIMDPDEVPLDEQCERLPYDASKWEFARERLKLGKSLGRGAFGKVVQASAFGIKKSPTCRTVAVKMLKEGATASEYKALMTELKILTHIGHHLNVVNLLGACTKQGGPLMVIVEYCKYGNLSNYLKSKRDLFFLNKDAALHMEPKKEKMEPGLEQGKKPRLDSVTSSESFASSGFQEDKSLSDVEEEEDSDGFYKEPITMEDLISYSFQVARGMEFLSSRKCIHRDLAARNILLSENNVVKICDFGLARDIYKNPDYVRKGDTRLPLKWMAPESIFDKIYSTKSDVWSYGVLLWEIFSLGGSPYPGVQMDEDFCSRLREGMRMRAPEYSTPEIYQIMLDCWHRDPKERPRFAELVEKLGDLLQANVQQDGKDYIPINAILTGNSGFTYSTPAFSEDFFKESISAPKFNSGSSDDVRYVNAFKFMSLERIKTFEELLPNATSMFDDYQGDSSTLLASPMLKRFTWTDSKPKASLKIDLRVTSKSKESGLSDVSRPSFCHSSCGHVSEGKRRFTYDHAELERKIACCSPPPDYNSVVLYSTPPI
Data set [2] deals with Vascular endothelial growth factor receptor 3 (Homo sapiens, UniProt P35916). Put plainly: Inhibition of VEGFR3 (unknown origin).
Data set [3] has as its target Fibroblast growth factor receptor 1 (Homo sapiens, UniProt P11362). In words: Inhibition of FGFR1 (unknown origin).
The target in data set [4] is Fibroblast growth factor receptor 3 (Homo sapiens, UniProt P22607). In words: Inhibition of FGFR3 (unknown origin).
Fibroblast growth factor receptor 3, sequence (P22607 whole entry): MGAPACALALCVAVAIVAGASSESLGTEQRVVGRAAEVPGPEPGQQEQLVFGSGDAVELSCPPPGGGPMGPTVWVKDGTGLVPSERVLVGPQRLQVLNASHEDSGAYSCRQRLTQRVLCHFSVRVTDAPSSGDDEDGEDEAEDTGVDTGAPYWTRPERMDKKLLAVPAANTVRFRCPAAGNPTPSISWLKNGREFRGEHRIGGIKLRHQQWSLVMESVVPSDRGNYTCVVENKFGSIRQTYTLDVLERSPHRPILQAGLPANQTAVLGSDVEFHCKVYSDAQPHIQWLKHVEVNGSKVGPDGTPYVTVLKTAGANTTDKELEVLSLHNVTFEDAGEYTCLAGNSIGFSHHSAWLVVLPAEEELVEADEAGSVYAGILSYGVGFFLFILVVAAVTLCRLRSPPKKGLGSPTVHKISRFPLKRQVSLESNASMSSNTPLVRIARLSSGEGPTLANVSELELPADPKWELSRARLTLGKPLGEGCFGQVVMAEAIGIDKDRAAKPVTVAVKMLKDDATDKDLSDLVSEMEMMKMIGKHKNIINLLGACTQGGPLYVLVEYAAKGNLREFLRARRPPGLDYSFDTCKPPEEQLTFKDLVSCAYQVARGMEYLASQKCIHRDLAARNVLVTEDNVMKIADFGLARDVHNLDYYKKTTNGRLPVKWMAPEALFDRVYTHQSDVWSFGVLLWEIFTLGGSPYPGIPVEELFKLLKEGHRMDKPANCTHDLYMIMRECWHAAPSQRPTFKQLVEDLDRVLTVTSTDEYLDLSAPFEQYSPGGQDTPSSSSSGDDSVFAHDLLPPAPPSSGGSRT
For data set [5], the target named is Fibroblast growth factor receptor 4 (Homo sapiens, UniProt P22455). In words: Inhibition of FGFR4 (unknown origin).
Fibroblast growth factor receptor 4, sequence (P22455 whole entry): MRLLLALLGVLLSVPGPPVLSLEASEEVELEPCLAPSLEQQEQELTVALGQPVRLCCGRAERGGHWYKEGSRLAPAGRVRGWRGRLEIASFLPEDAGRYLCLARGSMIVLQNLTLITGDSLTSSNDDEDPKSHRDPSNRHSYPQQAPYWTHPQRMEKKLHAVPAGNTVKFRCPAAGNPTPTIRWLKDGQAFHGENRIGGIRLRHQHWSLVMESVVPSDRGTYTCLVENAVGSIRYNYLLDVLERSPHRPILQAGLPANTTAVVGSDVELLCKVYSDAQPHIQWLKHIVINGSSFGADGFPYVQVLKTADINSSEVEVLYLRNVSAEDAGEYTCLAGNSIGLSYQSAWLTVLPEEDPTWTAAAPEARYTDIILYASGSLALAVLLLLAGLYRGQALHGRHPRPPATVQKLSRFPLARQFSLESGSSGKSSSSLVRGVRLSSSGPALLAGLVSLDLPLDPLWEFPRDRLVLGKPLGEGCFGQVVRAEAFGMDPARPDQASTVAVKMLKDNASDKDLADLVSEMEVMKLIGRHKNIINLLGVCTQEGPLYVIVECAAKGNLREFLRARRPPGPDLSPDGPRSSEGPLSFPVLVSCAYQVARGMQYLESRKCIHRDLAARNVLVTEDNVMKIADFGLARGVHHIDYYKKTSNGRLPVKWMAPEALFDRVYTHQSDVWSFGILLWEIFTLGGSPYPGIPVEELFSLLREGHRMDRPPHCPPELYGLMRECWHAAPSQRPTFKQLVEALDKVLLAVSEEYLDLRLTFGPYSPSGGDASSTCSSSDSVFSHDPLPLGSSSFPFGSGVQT
Data set [6] in a line: Inhibition of PDGFR (unknown origin). Also noted: species or system Homo sapiens.
The next data set has as its system MCF7. Put plainly: Antiproliferative activity against human MCF7 cells assessed as reduction in cell viability incubated for 48 hrs by MTT assay. The format is functional, cell-based. To be noted: MCF7, 48 h.
Data set [7] in a line: Half life in Wistar rat at 10 mg/kg, iv measured for 24 hrs by LC-MS/MS analysis. The class given is ADME, organism-based. As to conditions: in vivo.
Data set [8] is described as follows: Volume of distribution at steady state in Wistar rat at 10 mg/kg, iv measured for 24 hrs by LC-MS/MS analysis. The class given is ADME, organism-based. To be noted: in vivo.
In data set [9] the test system is Staphylococcus epidermidis. In words: microbe, parasite or virus in culture.
Description: Antibacterial activity against Staphylococcus epidermidis
The test system of data set [10] is Staphylococcus saprophyticus. Put plainly: microbe, parasite or virus in culture.
Description: Antibacterial activity against Staphylococcus saprophyticus
Data set [11] relates to Staphylococcus aureus. In words: microbe, parasite or virus in culture.
Description: Antibacterial activity against Methicillin-resistant staphylococcus aureus
The subject of a further data set is SK-N-FI. In words: Antiproliferative activity against human SK-N-FI cells. The format is functional, cell-based.
For data set [12], the target named is T1, NS3 protease (Hepacivirus C, UniProt C1KIQ2). In words: Inhibition of Hepatitis C virus genotype 1b NS3 protease. Details: species or system Hepacivirus hominis.
T1 sequence (C1KIQ2 whole entry): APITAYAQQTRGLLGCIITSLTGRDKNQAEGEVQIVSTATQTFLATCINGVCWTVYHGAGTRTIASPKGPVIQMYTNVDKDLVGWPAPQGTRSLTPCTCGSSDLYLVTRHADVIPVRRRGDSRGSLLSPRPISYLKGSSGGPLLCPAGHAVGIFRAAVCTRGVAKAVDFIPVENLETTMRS
Data set [13] concerns the target T1, NS3 protease. Put plainly: Binding affinity to Hepatitis C virus genotype 1a NS3 protease assessed as inhibition constant. Details: species or system Hepacivirus hominis.
In data set [14] the target is T1, NS3 protease. In words: Binding affinity to Hepatitis C virus genotype 1b NS3 protease assessed as inhibition constant. Also noted: species or system Hepacivirus hominis.
The next data set deals with HPAC. In words: Antiproliferative activity against human HPAC cells assessed as inhibition of cell growth measured after 72 hrs by MTT assay. The class given is functional, cell-based.
Another data set has as its system Capan-2. Put plainly: Antiproliferative activity against human Capan-2 cells assessed as reduction in cell viability incubated for 72 hrs by MTT assay. The format is functional, cell-based. To be noted: Capan-2, 72 h.
In data set [15] the target is T1, NS3 protease. Put plainly: Binding affinity to HCV NS3 protease assessed as inhibition constant. Also noted: species or system Hepacivirus hominis.
In data set [16] the target is Human immunodeficiency virus type 1 reverse transcriptase (Human immunodeficiency virus 1, UniProt Q72547). In words: Inhibition of HIV-1 reverse transcriptase.
Another data set has as its system Hepatitis C virus. Put plainly: Antiviral activity against Hepatitis C virus infected in human Huh7.5 cells assessed as reduction in viral replication. The format is functional, Hepacivirus hominis.
The subject of the next data set is BT-549. Put plainly: Cytotoxicity against human BT-549 cells assessed as inhibition of cell growth incubated for 72 hrs by MTT assay. The class given is functional, cell-based. As to conditions: BT-549, 72 h.
For another data set, the system named is MDA-MB-231. Put plainly: Antiproliferative activity against human MDA-MB-231 cells assessed as reduction in cell viability incubated for 72 hrs by MTT assay. The format is functional, cell-based. To be noted: MDA-MB-231, 72 h.
Data set [17] in a line: Inhibition of 20s constitutive proteasome beta-5c (unknown origin). Details: species or system Homo sapiens.
A short description of data set [18]: Inhibition of LPS-induced NFkappaB activation in mouse RAW264.7 cells assessed as inhibition of IKKalpha phosphorylation level incubated for 1 hrs by Western blot analysis. As to conditions: RAW264.7, 1 h. The class given is cell-based.
The test system of data set [19] is Staphylococcus aureus. Put plainly: Antibacterial activity against Staphylococcus aureus ATCC 25923 assessed as bacterial growth inhibition measured after 18 hrs by CLSI protocol based two-fold serial microdilution method. The class given is functional.
For another data set, the system named is Streptococcus pneumoniae. Put plainly: Antibacterial activity against Streptococcus pneumoniae ATCC 49619 assessed as inhibition of bacterial growth incubated for 24 hrs by CLSI protocol based broth micro-dilution method. The class given is functional.
The next data set relates to Pseudomonas aeruginosa. In words: Antibacterial activity against Pseudomonas aeruginosa ATCC 15442 assessed as reduction in bacterial cell growth incubated for 18 hrs by two fold serial microdilution method. The format is functional.
A further data set concerns Escherichia coli. Put plainly: Antibacterial activity against Escherichia coli assessed as reduction in bacterial growth by broth microdilution method. The class given is functional.
Data set [20] deals with Staphylococcus aureus. Put plainly: In vivo antibacterial activity against Staphylococcus aureus infected mouse model assessed as curative dose. The format is functional.
The subject of data set [21] is Staphylococcus aureus. Put plainly: In vivo antibacterial activity against streptomycin-resistant Staphylococcus aureus infected mouse model assessed as curative dose. The class given is functional.
Data set [22] relates to Staphylococcus aureus. Put plainly: In vivo antibacterial activity against erythromycin-resistant Staphylococcus aureus infected mouse model assessed as curative dose. The format is functional.
The next data set relates to SCaBER. In words: Antiproliferative activity against human SCaBER cells. The format is functional, cell-based.
Another data set has as its system J82. Put plainly: Antiproliferative activity against human J82 cells. The class given is functional, cell-based.
Data set [23] in a line: Inhibition of PK1 (unknown origin). Details: species or system Homo sapiens.
The next data set relates to SK-BR-3. Put plainly: Antiproliferative activity against human SK-BR-3 cells. The class given is functional, cell-based.
In a further data set the target is Tubulin. In words: Inhibition of tubulin polymerization (unknown origin). The class given is protein-complex assay, Homo sapiens.
Data set [24] deals with Staphylococcus aureus. In words: Antibacterial activity against Staphylococcus aureus. The class given is functional.
A further data set has as its system Thermus thermophilus. In words: Antibacterial activity against Thermus thermophilus. The format is functional, organism-based.

Fibroblast growth factor receptor 1, sequence (P11362 whole entry): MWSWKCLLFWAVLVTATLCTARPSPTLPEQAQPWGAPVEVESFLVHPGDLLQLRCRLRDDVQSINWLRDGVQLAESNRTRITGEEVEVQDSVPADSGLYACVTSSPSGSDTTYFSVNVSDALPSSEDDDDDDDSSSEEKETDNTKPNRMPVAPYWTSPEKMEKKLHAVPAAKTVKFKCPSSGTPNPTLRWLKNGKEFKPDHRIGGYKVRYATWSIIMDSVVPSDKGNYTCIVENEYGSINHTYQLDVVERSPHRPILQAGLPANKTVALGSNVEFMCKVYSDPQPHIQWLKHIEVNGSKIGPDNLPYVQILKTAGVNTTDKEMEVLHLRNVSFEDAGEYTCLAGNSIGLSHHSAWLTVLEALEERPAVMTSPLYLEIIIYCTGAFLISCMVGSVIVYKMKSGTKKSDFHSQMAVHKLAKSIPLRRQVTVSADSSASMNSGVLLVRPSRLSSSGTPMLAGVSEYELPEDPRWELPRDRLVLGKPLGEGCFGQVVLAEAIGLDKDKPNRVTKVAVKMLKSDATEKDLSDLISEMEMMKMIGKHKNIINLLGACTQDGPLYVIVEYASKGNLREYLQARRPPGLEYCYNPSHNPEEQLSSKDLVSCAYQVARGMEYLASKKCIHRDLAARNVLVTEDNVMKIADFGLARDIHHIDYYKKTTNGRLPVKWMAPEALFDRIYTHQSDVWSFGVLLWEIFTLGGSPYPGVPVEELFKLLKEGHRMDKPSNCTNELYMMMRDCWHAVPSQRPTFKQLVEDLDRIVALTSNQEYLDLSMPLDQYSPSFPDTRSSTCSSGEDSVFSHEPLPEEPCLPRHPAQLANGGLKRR

Regarding `COc1cc2nccc(Oc3ccc(NC(=O)NC4CC4)c(Cl)c3)c2cc1C(N)=O` [LENVATINIB], the IC50 in [1] came to 2 nM; in [2], 2 nM; in [3], 27 nM; in data set [4], 27 nM; in data set [5] it was 27 nM; in data set [6], 29 nM.

For `C[C@]12C[C@H]3S[C@H]3C[C@@H]1CC[C@@H]1[C@@H]2CC[C@]2(C)[C@@H](O)CC[C@@H]12` [EPITIOSTANOL], the IC50 in the data set on MCF7 is 30 nM.

Compound `CC[C@@H]1C(=O)N(C)c2cnc(Nc3ccc(C(=O)N[C@H]4CC[C@H](N5CCN(CC6CC6)CC5)CC4)cc3OC)nc2N1C(C)C` [VOLASERTIB] displayed a half-life in [7] of over 110 h. The same compound registered a Vd in data set [8] of over 4000 L.

Turning to `O=C(O)c1cn(C2CC2)c2cc(N3CCNCC3)c(F)cc2c1=O` [CIPROFLOXACIN], the MIC in data set [9] is under 1 µg/mL; in [10] it was under 1 µg/mL; with Staphylococcus aureus [11] it was 0.12 µg/mL (≈ 0.362 µM).

In the case of `CC[C@@H]1C(=O)N(C)c2cnc(Nc3ccc(C(=O)NC4CCN(C)CC4)cc3OC)nc2N1C1CCCC1` [BI-2536], the half-life in data set [7] was under 50 h. In [8], this compound yielded a Vd of 750 L.

Consider `C/C(=C\c1csc(C)n1)[C@@H]1C[C@@H]2O[C@]2(C)CCC[C@H](C)[C@H](O)[C@@H](C)C(=O)C(C)(C)[C@@H](O)CC(=O)N1` [IXABEPILONE], for which half-maximal inhibition in the data set with SK-N-FI (IC50) was put at 10 nM.

As to `COc1ccc2c(O[C@@H]3C[C@H]4C(=O)N[C@]5(C(=O)NS(=O)(=O)C6CC6)C[C@H]5/C=C\CCCCN(C)C(=O)[C@@H]4C3)cc(-c3nc(C(C)C)cs3)nc2c1C`, half-maximal inhibition against NS3 protease [12] (IC50) required 8 nM. The inhibitory constant (Ki) on NS3 protease [13] amounted to 0.5 nM; at NS3 protease [14] it was 0.4 nM.

Consider `CCn1c(-c2cc(N3CCN(C)CC3)cnc2[C@H](C)OC)c2c3cc(ccc31)-c1csc(n1)C[C@H](NC(=O)[C@H]1C[C@@H]1C)C(=O)N1CCC[C@H](N1)C(=O)OCC(C)(C)C2`, for which the IC50 in the data set on HPAC is 1.2 nM; in the data set with Capan-2, 1.4 nM.

For `CCN1c2ncccc2C(=O)Nc2c(C)ccnc21`, the Ki at NS3 protease [15] came out at 10 nM. This compound had an IC50 in [16] of 30 nM.

Turning to `CCCC(NC(=O)[C@H](CC(C)C)NC(=O)[C@@H](NC(=O)OC(C)(C)C)C1CCCCC1)C(=O)C(=O)NCC(=O)N[C@H](C(N)=O)c1ccccc1` (some centres not stated) (Boc-[Chg]L[X1]G[Phg]-NH2), the Ki on NS3 protease [15] was found to be 66 nM. For the same compound, the EC90 in the data set on Hepatitis C virus is 200 nM.

`CC(C)C[C@H](NC(=O)[C@H](CCc1ccccc1)NC(=O)CN1CCOCC1)C(=O)N[C@@H](Cc1ccccc1)C(=O)N[C@@H](CC(C)C)C(=O)[C@@]1(C)CO1` [CARFILZOMIB]: the IC50 came out at 10.8 nM in the data set with BT-549, 22.4 nM in the data set on MDA-MB-231 and 6 nM in [17].

In turn, `COc1ccc2c(O[C@@H]3C[C@H]4C(=O)N[C@]5(C(=O)O)C[C@H]5/C=C/CCCCC[C@H](NC(=O)OC5CCCC5)C(=O)N4C3)cc(-c3csc(NC(C)C)n3)cc2c1` registered an IC50 on NS3 protease [12] of 3 nM. Besides, the inhibition constant (Ki) on NS3 protease [13] came to 0.3 nM; on NS3 protease [14], 3 nM.

Turning to `CC(C)(C)NC(=O)N[C@H](C(=O)N1C[C@H]2[C@@H]([C@H]1C(=O)NC(CC1CCC1)C(=O)C(N)=O)C2(C)C)C(C)(C)C` (some centres not stated) [BOCEPREVIR], at NS3 protease [15], the inhibitory constant (Ki) is 14 nM. Also, the EC90 in the data set with Hepatitis C virus was 350 nM.

Regarding `CC1=C(CO)C(=O)O[C@@H]([C@@H](C)[C@H]2CC[C@H]3[C@@H]4C[C@H]5O[C@]56[C@@H](O)C=CC(=O)[C@]6(C)[C@H]4CC[C@]23C)C1` [WITHAFERIN A], in data set [18], the 50% inhibitory concentration (IC50) is 250 nM.

Regarding `CCn1cc(C(=O)O)c(=O)c2cc(F)c(N3CCNCC3)cc21` [NORFLOXACIN], the MIC in the data set on Staphylococcus aureus [19], in the data set on Streptococcus pneumoniae, in the data set on Pseudomonas aeruginosa and with Escherichia coli was at most 0.06 µg/mL throughout.

Consider `CC(C)[C@H](N)C(=O)N[C@H](C(=O)O)[C@@H]1C[C@H](NC(=N)N)[C@@H]2CN21` (some centres not stated), for which the CD50 in the data set on Staphylococcus aureus [20] is 7.6 mg/kg; in the data set with Staphylococcus aureus [21], 10 mg/kg; in the data set with Staphylococcus aureus [22], 11 mg/kg.

As for `CO[C@@]12[C@H](COC(N)=O)C3=C(C(=O)C(C)=C(N)C3=O)N1C[C@@H]1N[C@@H]12` [MITOMYCIN], the 50% inhibitory concentration (IC50) in the data set on SCaBER was 1500 nM; with J82, 300 nM; in [23], 287 nM.

Compound `COc1cc2cc(c1Cl)N(C)C(=O)C[C@H](OC(=O)[C@@H](C)N(C)C(=O)CCS)[C@]1(C)O[C@H]1[C@H](C)[C@@H]1C[C@@](O)(NC(=O)O1)[C@H](OC)/C=C/C=C(\C)C2` yielded an IC50 in the data set with SK-BR-3 of 1.1 nM.

`C/C1=C/C[C@@H](/C(C)=C/c2csc(C)n2)OC(=O)C[C@H](O)C(C)(C)C(=O)[C@H](C)[C@@H](O)[C@@H](C)CCC1` [EPOTHILONE D] yielded an IC50 in the data set on SK-N-FI of 46 nM.

For the compound `C/C(=C\c1csc(C)n1)[C@@H]1C[C@@H]2O[C@]2(C)CCC[C@H](C)[C@H](O)[C@@H](C)C(=O)C(C)(C)[C@@H](O)CC(=O)O1` [PATUPILONE], the half-inhibitory concentration (IC50) was 1.8 nM on Tubulin and 10 nM with SK-N-FI.

Take `COC[C@H](NC(=O)c1cnc(C)s1)C(=O)N[C@@H](COC)C(=O)N[C@@H](Cc1ccccc1)C(=O)[C@@]1(C)CO1` [OPROZOMIB]: the IC50 in the data set on BT-549 worked out at 50 nM; in the data set on MDA-MB-231, 79 nM; in data set [17], 36 nM.

Compound `C/C(=C\C(=O)OCCCCCCCCC(=O)O)C[C@@H]1OC[C@H](C[C@@H]2O[C@H]2[C@@H](C)[C@H](C)O)[C@@H](O)[C@H]1O` [MUPIROCIN] registered an MIC with Staphylococcus aureus [24] of 0.1 µg/mL (≈ 0.2 µM). For the same compound, in the data set on Thermus thermophilus, half-maximal inhibition (IC50) was put at 900 nM.

(Values after ChEMBL document CHEMBL6103541, “Ringing medicinal chemistry: The importance of 3-membered rings in drug discovery” (Bioorg Med Chem, 2024).)
